Key:
[1] = tested on: TM-1 cells (human trabecular meshwork cell line); test: Test for evaluation of effect of morphological change on trabecular meshwork cells (cell shape index); type: cell-based; conditions: 10 μM, 24 hours, control CSI 0.679, lower CSI indicates greater morphological change
Experimental: As a method for evaluating a cellular morphological change, an evaluation system using the cell shape index (hereinafter referred to as “CSI”) as an index has been reported in The Journal of Clinical Investigation, 103, 1141-1150 (1999). Therefore, according to the method described in the above document, an effect of morphological change by the present compounds on trabecular meshwork cells was evaluated.
A human trabecular meshwork cell line (hereinafter referred to as “TM-1 cells”) reported in Investigative Opthalmology & Visual Science, 43, 151-161 (2002) was used.
Culture medium 1: A reagent was prepared by adding fetal bovine serum (10%), L-glutamine (2 mM), amphotericin B (2.5 μg/mL), and gentamicin (25 μg/mL) to Dulbecco's Modified Eagle Medium (hereinafter referred to as “D-MEM”).
Culture medium 2: Fetal bovine serum (3%), L-glutamine (2 mM), amphotericin B (2.5 μg/mL), and gentamicin (25 μg/mL) were added to D-MEM.
Cell staining liquid: A mixed liquid of Calcein-AM (16 μM) and Hoechst 33342 (40 μM) was prepared by diluting a Calcein-AM solution (cytoplasmic staining reagent, manufactured by Dojindo Laboratories) and a Hoechst 33342 solution (nuclear staining reagent, manufactured by Dojindo Laboratories) with D-MEM containing L-glutamine (2 mM), amphotericin B (2.5 μg/mL), and gentamicin (25 μg/mL).
TM-1 cells subcultured at 37° C. in a 8% carbon dioxide gas atmosphere were treated with a trypsin/EDTA solution (0.05% trypsin and 0.53 mM tetrasodium ethylenediaminetetraacetate) at 24 hours before performing a drug treatment mentioned below and seeded on a 96-well culture plate. The culture medium 1 was used for the subculture of the cells. The culture medium 2 was used for the cell culture after seeding the cells on the plate.
A test compound was dissolved in dimethyl sulfoxide, whereby a 5 mM solution was prepared. Then, the resulting solution was diluted with the culture medium 2, whereby a 200 μM test compound solution was prepared.
It has been reported that Y-27632 which is a Rho kinase inhibitor induces a morphological change in trabecular meshwork cells in Investigative Opthalmology & Visual Science, 42, 137-144 (2001). Therefore, Y-27632 (produced according to the method described in WO 90/05723) was used as a positive control, and dissolved in dimethyl sulfoxide in the same manner as the test compound, whereby a 5 mM solution was prepared, and then, the resulting solution was diluted with the culture medium 2, whereby a 200 μM positive control compound solution was prepared.
1) To a 96-well culture plate, a solution of TM-1 cells adjusted to a cell density of […] was added in an amount of 95 μL (1.5×10^4 cells) per well.
2) Incubation was performed at 37° C. in a 8% carbon dioxide gas atmosphere for 24 hours.
3) The test compound solution or positive control compound solution was added in an amount of 5 μL per well (the final concentration of the test compound or positive control compound was 10 μM). As a control, the culture medium 2 containing dimethyl sulfoxide (4%) was added in an amount of 5 μL per well.
4) Incubation was performed at 37° C. in a 8% carbon dioxide gas atmosphere for 24 hours.
5) The cell staining liquid was added in an amount of 10 μL per well.
6) Incubation was performed at 37° C. in a 8% carbon dioxide gas atmosphere for 1 hour to stain the cells.
7) A 37% formaldehyde solution was added in an amount of 10 μL per well.
8) Incubation was performed at room temperature for 1 hour to fix the cells.
9) Washing with phosphate-buffered saline was performed.
10) Using Array Scan Vti HCS reader (manufactured by Cellomics), images of stained cells magnified with a 20-fold objective lens were captured in 80 fields (10 fields×8 wells) per test compound addition group.
11) CSI was calculated for each cell and an average value was obtained for each test compound addition group.
CSI was calculated using the following equation.
CSI=4π×(Cell Area)/(Cell Perimeter)^2

[2] = tested on: male Japanese White rabbits; test: Test for evaluation of intraocular pressure-lowering effect by intracameral administration; type: in vivo; conditions: 1 mM administration liquid, 20 μL intracameral, 8 or 9 hours after administration, vs vehicle control group, 6 cases
Experimental: In order to evaluate an intraocular pressure-lowering effect of the present compounds, a test for evaluation of intraocular pressure-lowering effect by intracameral administration of a drug using male Japanese White rabbits was performed.
A test compound was dissolved or suspended in physiological saline containing 0.5% dimethyl sulfoxide, whereby a 0.1 mM or 1 mM test compound administration liquid was prepared.
One drop of 0.4% oxybuprocaine hydrochloride eye drop was instilled into both eyes of each male Japanese White rabbit to achieve local anesthesia, and thereafter, the intraocular pressure was measured using an applanation tonometer. Then, by using a syringe fitted with a 30-gauge needle, the test compound administration liquid (20 μL) was intracamerally administered to one eye. As a control, 20 μL of the vehicle (physiological saline containing 0.5% dimethyl sulfoxide) for the test compound was intracamerally administered. After the lapse of a certain period of time from the administration of the test compound or vehicle, one drop of 0.4% oxybuprocaine hydrochloride eye drop was instilled into the administered eye to achieve local anesthesia, and thereafter, the intraocular pressure was measured using an applanation tonometer.
The intraocular pressure-lowering effect of each test compound was evaluated by calculating an intraocular pressure reduction rate. The intraocular pressure reduction rate (%) was calculated using the following equation.
(Intraocular Pressure Reduction Rate(%))=100×[{(Average Value of Intraocular Pressure of Control Group)−(Average Value of Intraocular Pressure of Each Test Compound Administration Group)}/(Average Value of Intraocular Pressure of Control Group)]

[3] = tested on: HDAC (HeLa nuclear extract); test: Test for evaluation of an HDAC inhibitory effect (HDAC Fluorimetric Assay/Drug Discovery Kit, Biomol); type: biochemical; conditions: final concentration of test compound 30 μM, rates of more than 100% are shown as 100%
Experimental: Using HDAC Fluorimetric Assay/Drug Discovery Kit (manufactured by Biomol), an HDAC inhibitory effect of the present compounds was measured according to the protocol included with the kit. The kit contains Buffer, HeLa nuclear extract (includes an HDAC), Substrate, Developer and Trichostatin A (an HDAC inhibitor).
A test compound was dissolved in dimethyl sulfoxide, whereby a 2 mg/mL solution was prepared. Then, the resulting solution was diluted with Buffer containing 5% dimethyl sulfoxide, whereby a 150 μM test compound solution was prepared.
1) To a 384-well culture plate, the test compound solution was added in an amount of 2 μL per well.
2) HeLa nuclear extract was diluted 30-fold with Buffer. The resulting solution was added in an amount of 3 μL per well and then, incubation was performed at 37° C. for 2 hours.
3) Substrate was diluted 500-fold with Buffer. The resulting solution was added in an amount of 5 μL per well (the final concentration of the test compound was 30 μM) and then, incubation was performed at 37° C. for 10 minutes.
4) Developer was diluted 20-fold with Buffer and Trichostatin A (2 μM) was added to it. The resulting solution was added in an amount of 10 μL per well and then, incubation was performed at room temperature for 15 minutes.
5) The fluorescence intensity of each well was measured using multilabel counter ARVO (manufactured by Wallac) with excitation at 360 nm and emission at 460 nm.
6) A control data was obtained from the same experiment except that Buffer containing 5% DMSO was added instead of the test compound solution as the above-mentioned procedure from 1) to 5).
7) A blank data was obtained from the same experiment except that Buffer containing 5% DMSO was added instead of the test compound solution and that Buffer was added instead of Hela nuclear extract as the above-mentioned procedure from 1) to 5).
Enzyme inhibitory rate (%) was calculated using the following equation.
(Enzyme Inhibitory Rate(%))=100×[1−{(Fluorescence Intensity of Test Compound Solution)−(Florescence Intensity of Blank)}/{(Florescence Intensity of Control)−(Florescence Intensity of Blank)}]

| Enzyme Inhibitory Rate (%) [3] | SMILES | CSI [1] | Intraocular Pressure Reduction Rate (%) [2] |
| --- | --- | --- | --- |
| 99% | Nc1ccccc1NC(=O)c1ccc(CNC(=O)OCc2cccnc2)cc1 [MS 275, N-(2-Aminophenyl)-4-(pyridin-3-ylmethyloxycarbonylaminomethyl)benzamide, reference compound] | 0.552 | 13% |
| 96% | Nc1ccccc1NC(=O)c1ccc(CNc2nccc(-c3cccnc3)n2)cc1 [MGCD-0103 free base, N-(2-Aminophenyl)-4-[4-(pyridin-3-yl)pyrimidin-2-ylaminomethyl]benzamide, reference compound] | 0.584 | 23% |
| 100% | CC(/C=C/C(=O)NO)=C\[C@@H](C)C(=O)c1ccc(N(C)C)cc1 [Trichostatin A, reference compound] | 0.496 | 18% |
|  | O=C(CCCCCCC(=O)Nc1ccccc1)NO [SAHA, N-Hydroxy-N′-phenyloctanediamide, reference compound] | 0.501 | 17% |
| 96% | Nc1ccccc1NC(=O)c1ccc(CN(CCCN2CCOCC2)C(=O)Nc2cccnc2)cn1 [Compound 1-8, N-(2-Aminophenyl)-5-[1-[3-(morpholin-4-yl)propyl]-3-(pyridin-3-yl)ureidomethyl]pyridine-2-carboxylic acid amide] | 0.538 |  |
| 98% | CN(C)CCN(Cc1ccc(C(=O)Nc2ccccc2N)nc1)C(=O)Nc1nccs1 [Compound 1-96, N-(2-Aminophenyl)-5-[1-(2-dimethylaminoethyl)-3-(1,3-thiazol-2-yl)ureidomethyl]pyridine-2-carboxylic acid amide] | 0.489 | 18% |
| 97% | Nc1ccccc1NC(=O)c1ccc(CN(CCCO)C(=O)Nc2ccc3c(c2)OCO3)cn1 [Compound 1-25, N-(2-Aminophenyl)-5-[3-(benzo[1,3]dioxol-5-yl)-1-(3-hydroxypropyl)ureidomethyl]pyridine-2-carboxylic acid amide] | 0.571 |  |
| 100% | CN(C)CCCN(Cc1ccc(C(=O)Nc2ccccc2N)nc1)C(=O)Nc1ccc(F)c(F)c1 [Compound 1-4, N-(2-Aminophenyl)-5-[3-(3,4-difluorophenyl)-1-(3-dimethylaminopropyl)ureidomethyl]pyridine-2-carboxylic acid amide] | 0.556 |  |
| 65% | Cc1ccc(C(=O)c2cc(/C=C/C(=O)NO)n(C)c2)cc1 [MC1293, (E)-N-Hydroxy-3-[1-methyl-4-(4-methylbenzoyl)-1H-pyrrol-2-yl]-2-propenamide, reference compound] | 0.628 |  |

| SMILES | Enzyme Inhibitory Rate (%) [3] | CSI [1] | Intraocular Pressure Reduction Rate (%) [2] |
| --- | --- | --- | --- |
| CN(C)c1ccc(C(=O)NCCCCCCC(=O)NO)cc1 [M 344, 4-Dimethylamino-N-(6-hydroxycarbamoylhexyl)benzamide, reference compound] | 99% | 0.500 |  |
